Experiments:
[1] = tested on: NCI-H358 human non-small cell lung cancer; assay: NCI-H358 CCK-8 proliferation assay; assay type: cell-based; conditions: NCI-H358 cells, 72 hr
Procedure: The following cancer cell lines were employed: BT-474 human breast carcinoma (ATCC, #HTB-20); MIA PaCa-2 human pancreatic carcinoma [2 copies KRAS(G12C)](ATCC, #CRL-1420); NCI-H23 human non-small cell lung cancer [1 copy KRAS(G12C)](ATCC, #CRL-5800); NCI-H358 human non-small cell lung cancer [1 copy KRAS(G12C)](ATCC, #CRL-5807); LU65A human lung carcinoma (Pharmaron, Beijing, China). Cell lines were cultured essentially according to ATCC and Pharmaron recommendations.
Cancer Cell Line Proliferation (CCK-8) Assays
3-fold serial dilutions of each test compound were prepared ranging from 20 μM to 1.02 nM.
% Inhibition=100−(D−B)/(S−B)*100%. • S: Absorbance of cells treated with DMSO • D: Absorbance of compound-treated cells • B: Absorbance of medium with DMSO without cells

HSP90a protein = target: T1, HSP90a protein (Homo sapiens, UniProt P07900); assay: HSP90α-binding fluorescent polarization (FP) assay, BODIPY-labeled RNK04010 probe; conditions: FP competition with RNK04010 (BODIPY-labeled), 5 nM, 300 min at 25° C.
T1 construct: purchased BPS Bioscience 50298
In short: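 Displacement of a 5 nM fluorescent HSP90 ligand from the N-terminal HSP90a domain by FP. Incubation ran at 25° C: 120 min for the FITC-geldanamycin tracer, 300 min for the BODIPY-conjugated triazolone RNK04010.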

SMILES | EC50 [1] | IC50 (HSP90a protein)
CCC(=O)N1CCN(c2nc(NCCC(=O)NCc3ccc(-n4c(O)nnc4-c4cc(C(C)C)c(O)cc4O)cc3)nc3c2CCN(c2cc(O)cc4ccccc24)C3)CC1 [Compound 50, N-(4-(3-(2,4-dihydroxy-5-isopropylphenyl)-5-hydroxy-4H-1,2,4-triazol-4-yl)benzyl)-3-((7-(3-hydroxynaphthalen-1-yl)-4-(4-propionylpiperazin-1-yl)-5,6,7,8-tetrahydropyrido[3,4-d]pyrimidin-2-yl)amino)propanamide, trifluoroacetic acid] | > 1000 nM | 100 to 1000 nM
CCC(=O)N1CCN(c2nc(NCCC(=O)NCc3ccc(-n4c(O)nnc4-c4cc(C)c(O)cc4O)cc3)nc3c2CCN(c2cc(O)cc4ccccc24)C3)CC1 [Compound 30, N-(4-(3-(2,4-dihydroxy-5-methylphenyl)-5-hydroxy-4H-1,2,4-triazol-4-yl)benzyl)-3-((7-(3-hydroxynaphthalen-1-yl)-4-(4-propionylpiperazin-1-yl)-5,6,7,8-tetrahydropyrido[3,4-d]pyrimidin-2-yl)amino)propanamide, trifluoroacetic acid] | > 1000 nM | > 1000 nM
CCc1cc(-c2nnc(O)n2-c2ccc(CNC(=O)CCNc3nc4c(c(N5CCN(C(C)=O)CC5)n3)CCN(c3cc(O)cc5ccccc35)C4)c(C(F)(F)F)c2)c(O)cc1O [Compound 53, 3-((4-(4-acetylpiperazin-1-yl)-7-(3-hydroxynaphthalen-1-yl)-5,6,7,8-tetrahydropyrido[3,4-d]pyrimidin-2-yl)amino)-N-(4-(3-(5-ethyl-2,4-dihydroxyphenyl)-5-hydroxy-4H-1,2,4-triazol-4-yl)-2-(trifluoromethyl)benzyl)propanamide, trifluoroacetic acid] | > 1000 nM | > 1000 nM
C=CC(=O)N1CCN(c2nc(NCCC(=O)NCCOCCOCCOc3ccc(-n4c(O)nnc4-c4cc(CC)c(O)cc4O)cc3)nc3c2CCN(c2cc(O)cc4ccccc24)C3)CC1 [Compound 5, 3-((4-(4-acryloylpiperazin-1-yl)-7-(3-hydroxynaphthalen-1-yl)-5,6,7,8-tetrahydropyrido[3,4-d]pyrimidin-2-yl)amino)-N-(2-(2-(2-(4-(3-(5-ethyl-2,4-dihydroxyphenyl)-5-hydroxy-4H-1,2,4-triazol-4-yl)phenoxy)ethoxy)ethoxy)ethyl)propanamide, trifluoroacetic acid] | > 1000 nM | > 1000 nM
C=CC(=O)N1CCN(c2nc(NCCC(=O)N3CCN(Cc4ccc5c(c4)CN(C(=O)c4cc(C(C)C)c(O)cc4O)C5)CC3)nc3c2CCN(c2cc(O)cc4ccccc24)C3)CC1 [Compound 58, 1-(4-(2-((3-(4-((2-(2,4-dihydroxy-5-isopropylbenzoyl)isoindolin-5-yl)methyl)piperazin-1-yl)-3-oxopropyl)amino)-7-(3-hydroxynaphthalen-1-yl)-5,6,7,8-tetrahydropyrido[3,4-d]pyrimidin-4-yl)piperazin-1-yl)prop-2-en-1-one] | > 1000 nM | 100 to 1000 nM
CCC(=O)N1CCN(c2nc(NCCC(=O)NCc3ccc(-n4c(O)nnc4-c4cc(CC)c(O)cc4O)cc3)nc3c2CCN(c2cc(O)cc4ccccc24)C3)CC1 [Compound 37, N-(4-(3-(5-ethyl-2,4-dihydroxyphenyl)-5-hydroxy-4H-1,2,4-triazol-4-yl)benzyl)-3-((7-(3-hydroxynaphthalen-1-yl)-4-(4-propionylpiperazin-1-yl)-5,6,7,8-tetrahydropyrido[3,4-d]pyrimidin-2-yl)amino)propanamide, trifluoroacetic acid] | > 1000 nM | 100 to 1000 nM
C=CC(=O)N1CCN(c2nc(NCCC(=O)NCc3ccc(-n4c(O)nnc4-c4cc(C(C)C)c(O)cc4O)cc3F)nc3c2CCN(c2cc(O)cc4ccccc24)C3)CC1 [Compound 47, 3-((4-(4-acryloylpiperazin-1-yl)-7-(3-hydroxynaphthalen-1-yl)-5,6,7,8-tetrahydropyrido[3,4-d]pyrimidin-2-yl)amino)-N-(4-(3-(2,4-dihydroxy-5-isopropylphenyl)-5-hydroxy-4H-1,2,4-triazol-4-yl)-2-fluorobenzyl)propenamide] | > 1000 nM | 100 to 1000 nM
CCC(=O)N1CCN(c2nc(NCCC(=O)N3CCN(Cc4ccc5c(c4)CN(C(=O)c4cc(CC)c(O)cc4O)C5)CC3)nc3c2CCN(c2cc(O)cc4ccccc24)C3)CC1 [Compound 66, 1-(4-((2-(5-ethyl-2,4-dihydroxybenzoyl)isoindolin-5-yl)methyl)piperazin-1-yl)-3-((7-(3-hydroxynaphthalen-1-yl)-4-(4-propionylpiperazin-1-yl)-5,6,7,8-tetrahydropyrido[3,4-d]pyrimidin-2-yl)amino)propan-1-one, trifluoroacetic acid] | > 1000 nM | > 1000 nM
C=CC(=O)N1CCN(c2nc(NCCC(=O)NCC3CCN(C(=O)C4CCN(Cc5ccc(-n6c(O)nnc6-c6cc(C(C)C)c(O)cc6O)cc5)CC4)CC3)nc3c2CCN(c2cccc4ccccc24)C3)C[C@H]1CC#N [Compound 101, (R)-3-((4-(4-acryloyl-3-(cyanomethyl)piperazin-1-yl)-7-(naphthalen-1-yl)-5,6,7,8-tetrahydropyrido[3,4-d]pyrimidin-2-yl)amino)-N-((1-(1-(4-(3-(2,4-dihydroxy-5-isopropylphenyl)-5-hydroxy-4H-1,2,4-triazol-4-yl)benzyl)piperidine-4-carbonyl)piperidin-4-yl)methyl)propanamide, trifluoroacetic acid] | > 1000 nM | < 100 nM
C=CC(=O)N1CCN(c2nc(NCCC(=O)N3CCC(CN4CCN(Cc5ccc(-n6c(O)nnc6-c6cc(CC)c(O)cc6O)cc5F)CC4)CC3)nc3c2CCN(c2cc(O)cc4ccccc24)C3)CC1 [Compound 8, 1-(4-(2-((3-(4-((4-(4-(3-(5-ethyl-2,4-dihydroxyphenyl)-5-hydroxy-4H-1,2,4-triazol-4-yl)-2-fluorobenzyl)piperazin-1-yl)methyl)piperidin-1-yl)-3-oxopropyl)amino)-7-(3-hydroxynaphthalen-1-yl)-5,6,7,8-tetrahydropyrido[3,4-d]pyrimidin-4-yl)piperazin-1-yl)prop-2-en-1-one, trifluoroacetic acid] | 100 to 1000 nM | 100 to 1000 nM
C=CC(=O)N1CCN(c2nc(NCCC(=O)N3CCN(Cc4ccc5c(c4)CN(C(=O)c4ccc(O)cc4O)C5)CC3)nc3c2CCN(c2cc(O)cc4ccccc24)C3)CC1 [Compound 86, 1-(4-(2-((3-(4-((2-(2,4-dihydroxybenzoyl)isoindolin-5-yl)methyl)piperazin-1-yl)-3-oxopropyl)amino)-7-(3-hydroxynaphthalen-1-yl)-5,6,7,8-tetrahydropyrido[3,4-d]pyrimidin-4-yl)piperazin-1-yl)prop-2-en-1-one, trifluoroacetic acid] | > 1000 nM | > 1000 nM
C=CC(=O)N1CCN(c2nc(NCCC(=O)NCC3CCN(C(=O)C4CCN(Cc5ccc(-n6c(O)nnc6-c6cc(CC)c(O)cc6O)cc5)CC4)CC3)nc3c2CCN(c2cccc4ccccc24)C3)C[C@H]1CC#N [Compound 103, (R)-3-((4-(4-acryloyl-3-(cyanomethyl)piperazin-1-yl)-7-(naphthalen-1-yl)-5,6,7,8-tetrahydropyrido[3,4-d]pyrimidin-2-yl)amino)-N-((1-(1-(4-(3-(5-ethyl-2,4-dihydroxyphenyl)-5-hydroxy-4H-1,2,4-triazol-4-yl)benzyl)piperidine-4-carbonyl)piperidin-4-yl)methyl)propanamide, trifluoroacetic acid] | > 1000 nM | < 100 nM
CCC(=O)N1CCN(c2nc(=O)n(-c3ccc(C(=O)NCCOCCOc4ccc(-n5c(O)nnc5-c5cc(C(C)C)c(O)cc5O)cc4)nc3)c3nc(-c4c(O)cccc4F)c(F)cc23)[C@@H](C)C1 [Compound 130, N-(2-(2-(4-(3-(2,4-dihydroxy-5-isopropylphenyl)-5-hydroxy-4H-1,2,4-triazol-4-yl)phenoxy)ethoxy)ethyl)-5-(6-fluoro-7-(2-fluoro-6-hydroxyphenyl)-4-((S)-2-methyl-4-propionylpiperazin-1-yl)-2-oxopyrido[2,3-d]pyrimidin-1(2H)-yl)picolinamide] | > 1000 nM | < 100 nM
CCc1cc(C(=O)N2Cc3ccc(CN4CCN(C(=O)CCNc5nc6c(c(N7CCN(C(C)=O)CC7)n5)CCN(c5cc(O)cc7ccccc57)C6)CC4)cc3C2)c(O)cc1O [Compound 67, 3-((4-(4-acetylpiperazin-1-yl)-7-(3-hydroxynaphthalen-1-yl)-5,6,7,8-tetrahydropyrido[3,4-d]pyrimidin-2-yl)amino)-1-(4-((2-(5-ethyl-2,4-dihydroxybenzoyl)isoindolin-5-yl)methyl)piperazin-1-yl)propan-1-one, trifluoroacetic acid] | > 1000 nM | 100 to 1000 nM
C=CC(=O)N1CCN(c2nc(NCCC(=O)NCc3ccc(-n4c(O)nnc4-c4cc(CC)c(O)cc4O)cc3F)nc3c2CCN(c2cccc4cccc(Cl)c24)C3)C[C@H]1CC#N [Compound 83, (R)-3-((4-(4-acryloyl-3-(cyanomethyl)piperazin-1-yl)-7-(8-chloronaphthalen-1-yl)-5,6,7,8-tetrahydropyrido[3,4-d]pyrimidin-2-yl)amino)-N-(4-(3-(5-ethyl-2,4-dihydroxyphenyl)-5-hydroxy-4H-1,2,4-triazol-4-yl)-2-fluorobenzyl)propanamide, trifluoroacetic acid] | > 1000 nM | > 1000 nM

Source: patent US20230391772A1, “METHODS AND COMPOSITIONS FOR TARGETED PROTEIN DEGRADATION” (Ranok Therapeutics (Hangzhou) Co. Ltd., priority 2020, published 2023)
